Results on seven molecules are retold here after patent publication EP3827825A1, “USE OF 3, 4-DIARYLPYRAZOLES AS ANTIBACTERIAL AGENTS” (Wageningen Universiteit, priority 2019, dated 2021).

For experiment [1], the system named is M. marinum. Briefly: Minimal inhibitory concentration (MIC), Middlebrook 7H9 broth, 3 days at 30 °C. It counts as cell-based, Mycobacterium marinum. The note with it: unit assumed. How it is done: (§1) In short, a stock solution of 5 mg/mL of HKIs in DMSO was made. This stock was diluted to 50 µg/mL in broth in a 96 well plate. Dilutions were made (factor 2) directly in the plate with a multi-channel pipet. Bacteria cultured in suspension overnight were then added to the plate (except negative control) and the plate was incubated for 24 hours. After 24 hours the OD600 was measured using a spectrophotometer. A positive control (with bacteria, without HKI) was also measured on each plate. The MICs were not determined in duplo/triplicate in the same experiment, however, the MICs of several HKIs were measured in different experiments and no major differences (max. 1x dilution) were found in the MICs between the experiments.
(§2) Bacterial strains used in this study for antibacterial susceptibility testing (Table S2) were propagated using standard microbiological procedures. Minimal inhibitory concentrations (MICs) were determined following a standard double-dilution method (42), 73. MICs were recorded as the lowest concentration of the compound where no visible growth was observed. After plating the dilutions around the MIC or growing them in fresh MH media, minimal bactericidal concentration (MBC) was recorded as the lowest concentration of the compound at which no colonies were formed or no growth was observed, respectively. For M. marinum, MICs were determined in Middlebrook 7H9 broth (Difco) and MICs were determined after 3 days incubation at 30 °C.
(§3) Grow the bacterial colonies to be tested from single colonies on an agar plate in LB broth or suitable bacterial growth medium overnight at 37°C. Prepare a 5 mg/mL stock solution of compounds to be tested in DMSO. One 96-well plate per bacterial strain was prepared. First, put 50 uL of medium to each well. Add 48 µL of medium to all wells in row A. Pipet 2 µL of antimicrobial master stock into the top well (row A). Beware, the antimicrobial concentration will be diluted 2x after adding the bacterial culture. Total volume in each well will be 100 µL. In A11, pipet 2 µL of DMSO. Make a serial dilution from row A to row H, pipetting 50 µL from the previous row into the new one. Mix well by pipetting up and down. Discard the last 50 µL so that there is 50 µl in each well In a clean, new plastic pipetting cup, dilute the overnight bacterial culture 100 times. Add 100 µL of bacterial overnight culture to 9900 µL of medium. Mix the suspension well. Once the serial dilutions are complete for all antimicrobial compounds, add 50 µL of diluted overnight bacterial culture to each well (except column 12). Mix by pipetting or put the plate on the shaker. Per 2 plates, close with parafilm around the edges and place in the incubator overnight. After overnight culturing, measure bacterial growth on the SpectraMax. The lowest concentration where no growth is observed is the MIC. To determine the MIB pipette 5 µL from each well of the 96 well plate where now growth was observed on to an LB agar plate, without antimicrobial. Put the plates in the incubator to grow overnight. The minimal concentration where no growth can be seen on the agar plate is the MBC.

For experiment [2], the system named is S. suis. Briefly: Minimal inhibitory concentration (MIC), double-dilution in broth, OD600. The note with it: unit assumed. It is filed as cell-based, Streptococcus suis. How it is done:
as §1, §2, §3

The subject of experiment [3] is NRK-52E. Briefly: Cell toxicity, Alamar blue assay, 24 hours exposure. The note with it: Rattus norvegicus. It counts as cell-based. How it is done: Toxicity was primarily determined by measuring cytotoxicity with the Alamar blue assay. In short, cells (HEK293, NRK-52E and Caco-2) were plated in 96-well plates and cultured overnight. HKI compounds were diluted to concentrations ranging from 0.39 to 500 µg/mL in serum-free medium and added to the cells.
After exposure, cells were incubated for 24 hours. Experiments were mostly performed by single measurement. […] After 24 hours HKIs were removed from the cells and Alamar blue was added, incubated for 45 minutes and fluorescence was measured on a spectrophotometer. Alamar blue measures the conversion of blue, low fluorescent resazurin into high fluorescent pink resorufin. This conversion can only be made in viable mitochondria in viable cells and therefore this dye provides a measure for cytotoxicity.
In general terms: Resazurin is reduced to fluorescent resorufin, in cell work by metabolically active cells.

For experiment [4], the system named is E. coli JW5503. It is filed as cell-based, Escherichia coli. The note with it: unit assumed. How it is done:
as §1, §2, §3

In experiment [5] the test system is P. multocida. Briefly: Minimal inhibitory concentration (MIC), double-dilution in broth, OD600. It counts as cell-based, Pasteurella multocida. The note with it: unit assumed. As to the method: as §1, §2, §3
Experiment [6] has as its system E. faecium Van A. Described as above. It is filed as cell-based, Enterococcus faecium. The note with it: unit assumed. As to the method:
as §1, §2, §3

The test system of experiment [7] is S. aureus Newman. The description is as above. It is filed as cell-based, Staphylococcus aureus Newman. The note with it: unit assumed. As to the method: In short, a stock solution of 5 mg/mL of HKIs in DMSO was made. This stock was diluted to 50 µg/mL in broth in a 96 well plate. Dilutions were made (factor 2) directly in the plate with a multi-channel pipet. Bacteria cultured in suspension overnight were then added to the plate (except negative control) and the plate was incubated for 24 hours. After 24 hours the OD600 was measured using a spectrophotometer. A positive control (with bacteria, without HKI) was also measured on each plate.
Bacterial strains used in this study for antibacterial susceptibility testing (Table S2) were propagated using standard microbiological procedures. Minimal inhibitory concentrations (MICs) were determined following a standard double-dilution method (42), 73. […] For M. marinum, MICs were determined in Middlebrook 7H9 broth (Difco) and MICs were determined after 3 days incubation at 30 °C.
as §3

Setting [8] is: read-out: IC50 NRK-52E (50 mg/mL stock).

Structures are written as SMILES. In brackets after ≈: the same amount, converted by molar mass. Like-named read-outs stand apart in the source and are kept apart here.

`COc1ccc(-c2c(-c3ccc(OC)c(C)c3O)n[nH]c2C(F)(F)F)cc1` [Sep-1, 3-methoxy-6-[4-(4-methoxyphenyl)-5-(trifluoromethyl)-1∼{H}-pyrazol-3-yl]-2-methyl-phenol]: in experiment [1], the MIC M. marinum is > 50 µg/mL. Moreover, the MIC S. suis in experiment [2] worked out at 50 µg/mL (≈ 132 µM). The IC50 in experiment [3] (setting [8]) amounted to 23.2 µg/mL (≈ 61.3 µM). Moreover, in experiment [4], the MIC E. coli JW5503 is 6.25 µg/mL (≈ 16.5 µM). Moreover, in experiment [5], the MIC P. multocida is > 50 µg/mL. This molecule gave an MIC E. faecium Van A in experiment [6] of 50 µg/mL (≈ 132 µM). This molecule registered an MIC S. aureus Newman in experiment [7] of 25 µg/mL (≈ 66.1 µM).

Take `CCOc1ccc(-c2n[nH]c(C(F)(F)F)c2-c2ccccc2)c(O)c1C` [Sep-3, 3-ethoxy-2-methyl-6-[4-phenyl-5-(trifluoromethyl)-1∼{H}-pyrazol-3-yl]phenol]: the MIC M. marinum in experiment [1] is > 50 µg/mL. The molecule also had an MIC S. suis in experiment [2] of 25 µg/mL (≈ 69 µM). Besides, in experiment [3] (setting [8]), the IC50 was ~15.5 µg/mL (≈ 42.8 µM). In addition, the MIC E. coli JW5503 in experiment [4] was found to be 6.25 µg/mL (≈ 17.2 µM). In addition, the MIC P. multocida in experiment [5] is > 50 µg/mL. The MIC E. faecium Van A in experiment [6] came out at 25 µg/mL (≈ 69 µM). Besides, the MIC S. aureus Newman in experiment [7] worked out at 12.5 µg/mL (≈ 34.5 µM).

Molecule `Cc1ccc(COc2ccc(-c3n[nH]c(C(F)(F)F)c3-c3cccc4ccccc34)c(O)c2)cc1` [Sep-4, 5-(4-methylbenzyl)oxy-2-[4-(1-naphthyl)-5-(trifluoromethyl)-1∼{H}-pyrazol-3-yl]phenol] registered an MIC M. marinum in experiment [1] of 50 µg/mL (≈ 105 µM). The MIC S. suis in experiment [2] was found to be 25 µg/mL (≈ 52.7 µM). Moreover, in experiment [3] (setting [8]), the IC50 stood at 13.9 µg/mL (≈ 29.2 µM). Also, in experiment [4], the MIC E. coli JW5503 is > 50 µg/mL. The MIC P. multocida in experiment [5] was > 50 µg/mL. The MIC E. faecium Van A in experiment [6] came to 25 µg/mL (≈ 52.7 µM). This molecule also came in with an MIC S. aureus Newman in experiment [7] of 3.13 µg/mL (≈ 6.6 µM).

The molecule `CCCCCOc1ccc(-c2n[nH]c(C(F)(F)F)c2-c2ccccc2Cl)c(O)c1` [Sep-5, 2-[4-(2-chlorophenyl)-5-(trifluoromethyl)-1∼{H}-pyrazol-3-yl]-5-pentoxyphenol] had an MIC M. marinum in experiment [1] of 50 µg/mL (≈ 118 µM). Also, the MIC S. suis in experiment [2] amounted to 12.5 µg/mL (≈ 29.4 µM). In experiment [3] (setting [8]), the IC50 is ~7.46 µg/mL (≈ 17.6 µM). In addition, the MIC E. coli JW5503 in experiment [4] is > 50 µg/mL. The MIC P. multocida in experiment [5] was > 50 µg/mL. The molecule also showed an MIC E. faecium Van A in experiment [6] of 12.5 µg/mL (≈ 29.4 µM). Further, the MIC S. aureus Newman in experiment [7] came to 3.13 µg/mL (≈ 7.37 µM).

`COc1ccc(-c2c(C(F)(F)F)n[nH]c2-c2ccc(OCc3ccc([N+](=O)[O-])cc3)cc2O)cc1` [Sep-6, 2-[4-(4-methoxyphenyl)-5-(trifluoromethyl)-1∼{H}-pyrazol-3-yl]-5-(4-nitrobenzyl)oxyphenol] displayed an MIC M. marinum in experiment [1] of 50 µg/mL (≈ 103 µM). The MIC S. suis in experiment [2] came out at 12.5 µg/mL (≈ 25.8 µM). The IC50 in experiment [3] (setting [8]) turned out to be 8.42 µg/mL (≈ 17.3 µM). In experiment [4], this molecule registered an MIC E. coli JW5503 of 12.5 µg/mL (≈ 25.8 µM). For the same molecule, in experiment [5], the MIC P. multocida is > 50 µg/mL. In addition, the MIC E. faecium Van A in experiment [6] came to 6.25 µg/mL (≈ 12.9 µM). The same molecule showed an MIC S. aureus Newman in experiment [7] of 3.13 µg/mL (≈ 6.45 µM).

In experiment [1], `COc1ccc(-c2n[nH]c(C)c2-c2ccc(Cl)cc2)c(O)c1` [Sep-21, 2-[4-(4-chlorophenyl)-5-methyl-1∼{H}-pyrazol-3-yl]-5-methoxy-phenol] displayed an MIC M. marinum of 50 µg/mL (≈ 159 µM). Moreover, in experiment [2], the MIC S. suis is > 50 µg/mL. In addition, the IC50 in experiment [3] (setting [8]) was 18.2 µg/mL (≈ 57.9 µM). Moreover, the MIC P. multocida in experiment [5] is > 50 µg/mL. The MIC E. faecium Van A in experiment [6] stood at 50 µg/mL (≈ 159 µM). For the same molecule, the MIC S. aureus Newman in experiment [7] worked out at 50 µg/mL (≈ 159 µM).

Take `COc1ccccc1-c1c(-c2ccc(OCC(=O)NN)cc2O)n[nH]c1C(F)(F)F` [Sep-26, 2-[3-hydroxy-4-[4-(2-methoxyphenyl)-5-(trifluoromethyl)-1∼{H}-pyrazol-3-yl]phenoxy]acetohy drazide]: the MIC M. marinum in experiment [1] is > 50 µg/mL. Further, the MIC S. suis in experiment [2] is > 50 µg/mL. The IC50 in experiment [3] (read-out: IC50 NRK-52E (50 mg/mL stock), 50 mg/mL stock) amounted to 194 µg/mL (≈ 461 µM). The MIC P. multocida in experiment [5] is > 50 µg/mL. Moreover, the MIC E. faecium Van A in experiment [6] amounted to 25 µg/mL (≈ 59.2 µM). Also, in experiment [7], the MIC S. aureus Newman is > 50 µg/mL.
